Laboratory results taken from US10851116B2, “Bicyclic amines as novel JAK kinase inhibitors” (LEO Pharma A/S, priority 2017, dated 2020).

What was measured:
[1] = target: JAK2 (Homo sapiens (Human), UniProt O60674); experiment: JAK kinase assay (HTRF), JAK2; format: biochemical; conditions: catalytic domain, His-tag, ATP at Km (4 μM)
Protocol: (§1) Human baculovirus-expressed JAK1, 2, 3 and TYK2 were purchased from Carna Biosciences, Inc. All four purified enzymes contain only the catalytic domain. JAK1 (aa 850-1154) and TYK2 (aa 871-1187) are expressed with an N-terminally fused GST-tag, and JAK2 and JAK3 with an N-terminally fused His-tag.
(§2) Inhibition of phosphorylation of a synthetic peptide was measured in an HTRF-based assay using the TK substrate-Biotin from the Cisbio HTRFKinEASE TK kit. First, 2 μl of TK solution (TK substrate-biotin in kinase buffer [1× enzymatic buffer from HTRFKinEASE TK kit, 1 mM DTT]) is added to a plate containing 1 μl prediluted compound (final assay concentration DMSO: 0.75%). Then, 5 μl kinase-ATP mix (prepared in kinase buffer) is added to the wells and the plates are incubated at RT for 20-30 min. For all four kinases a concentration of ATP that corresponded to the Km for ATP was used. The final concentrations of buffers, substrate, kinase and ATP were: JAK1: 50 mM Hepes buffer pH 7.0, 0.01% BSA, 10 mM MgCl2, 1 mM DTT, 7 μM ATP, 50 nM SEB, 1 μM TK Substrate-Biotin and 5 ng JAK1; JAK2: 50 mM Hepes buffer pH 7.0, 0.01% BSA, 5 mM MgCl2, 1 mM DTT, 4 μM ATP, 1 μM TK Substrate-Biotin and 0.1 ng JAK2; JAK3: 50 mM Hepes buffer pH 7.0, 0.01% BSA, 5 mM MgCl2, 1 mM DTT, 2 μM ATP, 1 μM TK Substrate-Biotin and 0.3 ng JAK3; TYK2: 50 mM Hepes buffer pH 7.0, 0.01% BSA, 5 mM MgCl2, 1 mM DTT, 13 μM ATP, 50 nM SEB, 1 μM TK Substrate-Biotin and 0.8 ng TYK2. Thereafter, the kinase reaction is stopped by adding 4 μl detection mix (final concentrations: 50 mM Hepes buffer pH 7.0, 0.01% BSA, 0.8 M KF, 20 mM EDTA, 42 nM Streptavidin-XL665 and 1:400 STK Ab Cryptate) and the plates are incubated overnight in the dark. The HTRF signal is read using an Envision plate reader.

[2] = target: TYK2 (Homo sapiens (Human), UniProt P29597); experiment: JAK kinase assay (HTRF), TYK2; format: biochemical; conditions: catalytic domain (aa 871-1187), GST-tag, ATP at Km (13 μM)
Protocol: as §1, §2

[3] = in vitro metabolic stability in human liver microsomes; format: in vitro ADME; conditions: compound 0.5 μM, human liver microsomes 0.5 mg/mL, NADPH, 40 min, 37° C.; for CLint scaled at 0.5 μM: human, liver microsomes, read-out: Human liver microsome Clapp (apparent intrinsic clearance)
Protocol: To assess the in vitro metabolic stability, the compounds (0.5 μM) were incubated in duplicates with human liver microsomes (0.5 mg/mL) in phosphate buffer and NADPH, in 96-well plates for 40 min (37° C.), using a liquid handling robot (Hamilton Microlab Star). Sample aliquots were taken at 0, 5, 10, 20 and 40 min, and dispensed into cold acetonitrile, in order to stop the reactions. The plates were centrifuged for 30 minutes before the samples were analyzed using liquid chromatography coupled to a time-of-flight mass spectrometer (AB Sciex API5600). The compound depletion over time was used to estimate the elimination rate constant, from which the apparent intrinsic clearance, Clapp, was calculated and the values are listed in table 2.

[4] = target: JAK3 (Homo sapiens (Human), UniProt P52333); experiment: JAK kinase assay (HTRF), JAK3; format: biochemical; conditions: catalytic domain, His-tag, ATP at Km (2 μM)
Protocol: as §1, §2

[5] = target: JAK1 (Homo sapiens (Human), UniProt P23458); experiment: JAK kinase assay (HTRF), JAK1; format: biochemical; conditions: catalytic domain (aa 850-1154), GST-tag, ATP at Km (7 μM)
Protocol: as §1, §2

Sequence of JAK3 (P52333 822-1111): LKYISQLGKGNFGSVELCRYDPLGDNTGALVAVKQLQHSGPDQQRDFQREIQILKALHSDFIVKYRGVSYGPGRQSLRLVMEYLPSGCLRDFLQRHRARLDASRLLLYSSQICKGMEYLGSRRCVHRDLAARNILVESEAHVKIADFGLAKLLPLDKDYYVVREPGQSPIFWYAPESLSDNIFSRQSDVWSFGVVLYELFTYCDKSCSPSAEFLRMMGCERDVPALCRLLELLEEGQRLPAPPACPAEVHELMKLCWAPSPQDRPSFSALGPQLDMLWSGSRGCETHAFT
Sequence of TYK2 (P29597 871-1187): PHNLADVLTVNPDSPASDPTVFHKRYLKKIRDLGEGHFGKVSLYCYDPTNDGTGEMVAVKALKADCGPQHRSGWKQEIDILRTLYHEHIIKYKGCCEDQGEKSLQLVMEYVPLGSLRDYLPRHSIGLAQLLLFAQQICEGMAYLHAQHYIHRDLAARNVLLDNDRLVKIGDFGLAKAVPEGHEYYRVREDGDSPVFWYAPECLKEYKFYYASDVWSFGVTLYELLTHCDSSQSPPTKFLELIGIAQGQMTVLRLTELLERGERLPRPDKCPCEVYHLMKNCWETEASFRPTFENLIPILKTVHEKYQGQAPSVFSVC
Sequence of JAK2 (O60674 849-1124): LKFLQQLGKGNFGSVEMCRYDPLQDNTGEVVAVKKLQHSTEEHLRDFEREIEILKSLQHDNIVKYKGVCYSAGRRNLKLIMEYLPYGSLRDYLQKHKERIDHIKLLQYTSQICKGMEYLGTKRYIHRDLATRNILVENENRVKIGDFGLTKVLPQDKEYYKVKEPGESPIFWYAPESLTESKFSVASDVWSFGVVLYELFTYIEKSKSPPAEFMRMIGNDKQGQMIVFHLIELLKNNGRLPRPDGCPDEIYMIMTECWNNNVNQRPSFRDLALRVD
Sequence of JAK1 (P23458 850-1154): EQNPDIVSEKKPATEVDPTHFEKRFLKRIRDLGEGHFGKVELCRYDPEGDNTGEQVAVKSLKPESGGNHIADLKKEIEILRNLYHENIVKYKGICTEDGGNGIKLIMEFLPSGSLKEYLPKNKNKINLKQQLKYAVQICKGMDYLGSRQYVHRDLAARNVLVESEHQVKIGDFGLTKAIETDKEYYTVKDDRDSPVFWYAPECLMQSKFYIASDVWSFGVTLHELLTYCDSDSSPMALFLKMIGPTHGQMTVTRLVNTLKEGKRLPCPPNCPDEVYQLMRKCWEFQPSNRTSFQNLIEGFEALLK

| SMILES | EC50 [1] [nM] | EC50 [2] [nM] | CLint scaled at 0.5 μM [3] [mL/min/kg] | EC50 [4] [nM] | EC50 [5] [nM] | Human liver microsome Clapp (apparent intrinsic clearance) [3] [mL/min/kg] |
| --- | --- | --- | --- | --- | --- | --- |
| C[C@]12CN(c3cnc(C#N)cn3)C[C@H]1CCN(c1ncnc3[nH]ccc13)C2 (racemic) [Example 43] | 22 | 232 | 55 | 37 | 3 | – |
| CC[C@@]12CN(c3ncnc4[nH]ccc34)CC[C@@H]1CCN(S(N)(=O)=O)C2 (relative stereo) [Example 17, (4aR*,8aS*)-8a-ethyl-7-(7H-pyrrolo[2,3-d]pyrimidin-4-yl)-3,4,4a,5,6,8-hexahydro-1H-2,7-naphthyridine-2-sulfonamide] | 7 | 45 | 197 | 3 | 2 | – |
| CC[C@@]12CN(c3ncnc4[nH]ccc34)CC[C@@H]1CCN(S(N)(=O)=O)C2 [Example 18, (4aR,8aS)-8a-ethyl-7-(7H-pyrrolo[2,3-d]pyrimidin-4-yl)-3,4,4a,5,6,8-hexahydro-1H-2,7-naphthyridine-2-sulfonamide] | 3 | 17 | – | 2 | 2 | 127 |
| C[C@]12CN(C#N)CC[C@H]1CCN(c1ncnc3[nH]ccc13)C2 (relative stereo) [Example 2, (4aR*,8aS*)-8a-methyl-7-(7H-pyrrolo[2,3-d]pyrimidin-4-yl)-3,4,4a,5,6,8-hexahydro-1H-2,7-naphthyridine-2-carbonitrile] | 6 | 27 | – | 25 | 1 | 62 |
| C[C@]12CN(C#N)CC[C@H]1CCN(c1ncnc3[nH]ccc13)C2 [Example 1, (4aR,8aS)-8a-methyl-7-(7H-pyrrolo[2,3-d]pyrimidin-4-yl)-3,4,4a,5,6,8-hexahydro-1H-2,7-naphthyridine-2-carbonitrile] | 4 | 13 | 54 | 15 | 1 | – |
| Cc1cc(N2C[C@H]3CCN(c4ncnc5[nH]ccc45)C[C@@]3(C)C2)ncc1C#N (racemic) [Example 40, 6-[(3aR*,7aS*)-3a-methyl-5-(7H-pyrrolo[2,3-d]pyrimidin-4-yl)-1,3,4,6,7,7a-hexahydropyrrolo[3,4-c]pyridin-2-yl]-4-methyl-pyridine-3-carbonitrile] | 28 | 722 | 200 | 46 | 3 | – |
| Cc1cc(N2CC[C@H]3CCN(c4ncnc5[nH]ccc45)C[C@@]3(C)C2)ncc1C#N (racemic) [Example 8, 6-[(4aS*,8aR*)-8a-methyl-7-(7H-pyrrolo[2,3-d]pyrimidin-4-yl)-3,4,4a,5,6,8-hexahydro-1H-2,7-naphthyridin-2-yl]-4-methyl-pyridine-3-carbonitrile] | 269 | 2110 | 200 | 21 | 86 | – |
| CC[C@]12CN(c3nnc(Br)s3)CC[C@H]1CCN(c1ncnc3[nH]ccc13)C2 (relative stereo) [Example 20, 2-[(4aR*,8aS*)-8a-ethyl-7-(7H-pyrrolo[2,3-d]pyrimidin-4-yl)-3,4,4a,5,6,8-hexahydro-1H-2,7-naphthyridin-2-yl]-5-bromo-1,3,4-thiadiazole] | 17 | 269 | 200 | 5 | 4 | – |
| CC12CN(c3ccc(C#N)cn3)C[C@@H]1CCN(c1ncnc3[nH]ccc13)C2 (stereo in doubt) [Example 34, 6-[(3aR,7aR)-3a-methyl-5-(7H-pyrrolo[2,3-d]pyrimidin-4-yl)-1,3,4,6,7,7a-hexahydropyrrolo[3,4-c]pyridin-2-yl]pyridine-3-carbonitrile] | 927 | 7010 | 136 | 1170 | 192 | – |
| CC[C@]12CN(C=O)CC[C@H]1CCN(c1ncnc3[nH]ccc13)C2 (relative stereo) [Example 16, (4aR*,8aS*)-8a-ethyl-7-(7H-pyrrolo[2,3-d]pyrimidin-4-yl)-3,4,4a,5,6,8-hexahydro-1H-2,7-naphthyridine-2-carbaldehyde] | 41 | 176 | 116 | 43 | 13 | – |
| C[C@]12CN(C(=O)C3(C#N)CCCC3)C[C@H]1CCN(c1ncnc3[nH]ccc13)C2 (racemic) [Example 46, 1-[(3aS*,7aS*)-3a-methyl-5-(7H-pyrrolo[2,3-d]pyrimidin-4-yl)-1,3,4,6,7,7a-hexahydropyrrolo[3,4-c]pyridine-2-carbonyl]cyclopentanecarbonitrile] | 625 | 1510 | – | 705 | 97 | – |
| Cc1cc(C#N)cnc1N1C[C@H]2CCN(c3ncnc4[nH]ccc34)C[C@@]2(C)C1 (racemic) [Example 44] | 179 | 2020 | – | 99 | 65 | – |
| C[C@@]12CN(c3ncnc4[nH]ccc34)CC[C@@H]1CN(S(=O)(=O)CC(F)(F)F)C2 (racemic) [Example 31, 4-[(3aS*,7aS*)-3a-methyl-2-(2,2,2-trifluoroethylsulfonyl)-1,3,4,6,7,7a-hexahydropyrrolo[3,4-c]pyridin-5-yl]-7H-pyrrolo[2,3-d]pyrimidine] | 455 | 3180 | – | 274 | 133 | – |
| C[C@]12CN(c3ncc(C#N)cn3)CC[C@H]1CCN(c1ncnc3[nH]ccc13)C2 (racemic) [Example 7, 2-[(4aR*,8aS*)-8a-methyl-7-(7H-pyrrolo[2,3-d]pyrimidin-4-yl)-3,4,4a,5,6,8-hexahydro-1H-2,7-naphthyridin-2-yl]pyrimidine-5-carbonitrile] | 140 | 740 | – | 5 | 46 | – |
| Cc1nc(N2CC[C@H]3CCN(c4ncnc5[nH]ccc45)C[C@@]3(C)C2)ccc1C#N (racemic) [Example 10, 6-[(4aS*,8aR*)-8a-methyl-7-(7H-pyrrolo[2,3-d]pyrimidin-4-yl)-3,4,4a,5,6,8-hexahydro-1H-2,7-naphthyridin-2-yl]-2-methyl-pyridine-3-carbonitrile] | 469 | 3880 | – | 204 | 112 | – |
| C[C@@]12CN(c3ncnc4[nH]ccc34)CC[C@@H]1CN(S(=O)(=O)NCC#N)C2 (racemic) [Example 30, (3aS*,7aS*)—N-(cyanomethyl)-3a-methyl-5-(7H-pyrrolo[2,3-d]pyrimidin-4-yl)-1,3,4,6,7,7a-hexahydropyrrolo[3,4-c]pyridine-2-sulfonamide] | 56 | 364 | – | 91 | 29 | – |
| CC[C@]12CN(c3ncnc4[nH]ccc34)CC[C@H]1CCN(S(N)(=O)=O)C2 [Example 19, (4aS,8aR)-8a-ethyl-7-(7H-pyrrolo[2,3-d]pyrimidin-4-yl)-3,4,4a,5,6,8-hexahydro-1H-2,7-naphthyridine-2-sulfonamide] | 208 | 1880 | – | 151 | 146 | – |
| C[C@@]12CN(c3ncnc4[nH]ccc34)CC[C@@H]1CN(S(N)(=O)=O)C2 (racemic) [Example 27, (3aS*,7aS*)-3a-methyl-5-(7H-pyrrolo[2,3-d]pyrimidin-4-yl)-1,3,4,6,7,7a-hexahydropyrrolo[3,4-c]pyridine-2-sulfonamide] | 80 | 473 | – | 54 | 40 | – |
